Data published in US20140031427A1, “COMBINATIONS OF ADAPALENE AND BENZOYL PEROXIDE FOR TREATING ACNE LESIONS” (GALDERMA RESEARCH & DEVELOPMENT, priority 2006, published 2014).
Where “and” joins values, the source holds several entries; their conditions need not be identical. Identical values can stand only once.

Legend:
TPA-induced ear edema = experiment: Anti-inflammatory evaluation in TPA-induced ear oedema model; format: in vivo, Balb/c mice; conditions: T+6 hours
Method: The study was carried out with 45 (5 par groups) female 9 weeks aged Balb/c ByJIc mice.
The Edema was induced by a single application of 20 μl of TPA dissolved in acetone at 0.01%.
The treatment was administrated by single topical application of tested compounds dissolved in TPA at 0.01% (groups 3, 4, 5, 6 and 7) and dissolved in TPA 0.01%+BPO (groups 8, 9 and 10).
The treatments activity was measured by inflammation evaluation with ear thickness at T+6 hours.

acne vulgaris lesions = experiment: Pooled analysis of three adapalene-BPO clinical studies (3855 patients): efficacy and synergy; format: in vivo, human; conditions: adapalene 0.1%, BPO 2.5%; for net effect (active minus vehicle), total lesions: week 1; for success rate: week 12, % patients with IGA clear or almost clear
Method: (§1) Three multicenter, double-blind, randomized and controlled studies on the efficacy and safety of adapalene-BPO were conducted in 157 centers in the U.S, Puerto Rico, Canada, Germany, Poland and Hungary.^19-21 Patients were randomized to receive adapalene 0.1%-BPO 2.5% (Epiduo®, Galderma Laboratories), adapalene 0.1%, BPO 2.5% or vehicle once daily in the evening for 12 weeks. Adapalene and BPO used in the studies were formulated in the same gel vehicle as adapalene-BPO, instead of as the respective commercial products (Differin® and Benzac®, Galderma Laboratories). Efficacy and safety assessments were performed at each study visit, occurred at baseline, weeks 1, 2, 4, 8 and 12.
Eligible patients were 12 years or older with 20 to 50 inflammatory lesions (IL), 30 to 100 non-inflammatory lesions (NIL), no cysts and no more than 1 nodule on the face. […] Lesion counts were performed on the face only excluding the nose. Specified washout periods were required for patients taking certain topical and systemic treatments. Patients were excluded if they received systemic acne treatment or had dermatological conditions requiring interfering treatments. Women were excluded if they were pregnant, nursing, or planning a pregnancy. Men were excluded if they had facial hair that would interfere with assessments.
IGA was evaluated on a scale from 0 (clear: residual hyperpigmentation and erythema may be present) to 4 (severe: entire face is involved, covered with comedones, numerous papules and pustules, and few nodules and cysts).
(§2) Data from the three studies were pooled and analyzed. Efficacy was evaluated in the intent-to-treat (ITT) population, which included all patients who were randomized and dispensed study medicine. Safety was assessed in the safety population, which included all patients who were randomized and treated at least once.
Efficacy was evaluated by the Cochran-Mantel-Haenzsel (CMH) test, using general association for success rate and row mean differences by relative to identified distribution (RIDIT) transformed scores for percent lesion change. All tests were 2-sided.
Synergy was defined as the efficacy of combination (adapalene-BPO) greater than the sum of efficacy of individual components (adapalene alone and BPO alone). We took into account the vehicle effect by deducting it from the effect of treatments:^25
Net effect of active agent=effect of active agent−effect of vehicle Synergy=Net effect of adapalene-BPO−(Net effect of adapalene+Net effect of BPO)>0
The degree of synergy was evaluated based on the contribution of synergy to efficacy (net effect) of adapalene-BPO:
Degree of synergy(%)=(synergy/Net effect of adapalene-BPO)×100

[1] = even in the presence of light; cited from earlier work
acne lesions = experiment: Clinical study of topical gel combining adapalene + BPO vs monads and vehicle, 517 patients, 12 weeks; format: in vivo, human; conditions: for reduction in lesions: all lesions, week 12, rounded values in text; for Degree of success / Progress of the lesions (as median absolute numbers): Number of inflammatory lesions / Progress of the lesions (as median absolute numbers): Number of non-inflammatory lesions / Progress of the lesions (as median absolute numbers): Total number of lesions / Progress of the lesions (median percentages): Number of inflammatory lesions / Progress of the lesions (median percentages): Number of non-inflammatory lesions / Progress of the lesions (median percentages): Total number of lesions: week 12, ITT, adapalene 0.1%, BPO 2.5%; for Degree of success: % patients clear or almost clear, gels once a day
Method: A clinical study for confirmation of efficacy was performed for a topical gel combining adapalene+benzoyl peroxide (BPO). This gel has the following formulation (expressed as % weight/total weight): The clinical study was a multi-center, randomized, double-blind study in parallel groups, to evaluate the tolerance and the efficacy of the above formulation, in comparison with its own individual active substances placed at the same doses in gels of the same formula as that of the fixed combination (individual formulae referred to as “monads”) and in comparison with the gel vehicle (placebo formula): adapalene gel (0.1%), BPO gel (2.5%) and vehicle gel. All the treatments were applied once a day for 12 weeks, to 517 patients suffering from acne. The main efficacy criteria were: the degree of success, defined as the percentage of patients considered as being “clear”, i.e., the patient has no more acne lesions (neither comedones nor inflammatory lesions), reflecting an improvement in the patient's clinical condition, or “almost clear” on the evaluation scale; the reduction of the percentage of inflammatory and non-inflammatory lesions after 12 weeks of treatment.

[2] = Pooled analysis of three adapalene-BPO clinical studies: safety (adverse events, local facial tolerability); format: in vivo, human; conditions: 12 weeks, safety population; adapalene 0.1%, BPO 2.5%
Method: as §1
Safety of the treatments was evaluated through reporting of adverse events (AE) and assessments of local facial tolerability. At each study visit, the investigators rated signs of erythema, scaling, dryness and stinging/burning on a scale from 0 (none) to 3 (severe).
as §2

[3] = Adapalene at 0.1% alone in TPA 0.01%
[4] = BPO at 2.5% (alone or with adapalene at 0.1%) in TPA 0.01%
[5] = BPO at 5% (alone or with adapalene at 0.1%) in TPA 0.01%
[6] = BPO at 10% (alone or with adapalene at 0.1%) in TPA 0.01%

## COc1ccc(-c2ccc3cc(C(=O)O)ccc3c2)cc1C12CC3CC(CC(C3)C1)C2 [Adapalene, 6-[3-(1-Adamantyl)-4-methoxyphenyl]-2-naphthoic acid]
TPA-induced ear edema; [3]
  Ear edema Mean: 23.40
  Inhibition vs TPA (%): 13% and 12.7%
Acne vulgaris lesions
  net effect (active minus vehicle), total lesions: 1.4%
  success rate: 20.0%
[1]
  stability when combined with BPO: remains stable
Acne lesions
  reduction in lesions: 35%
  Degree of success: 15.5%
  Progress of the lesions (as median absolute numbers): Number of inflammatory lesions: −13.0
  Progress of the lesions (as median absolute numbers): Number of non-inflammatory lesions: −17.0
  Progress of the lesions (as median absolute numbers): Total number of lesions: −29.0
  Progress of the lesions (median percentages): Number of inflammatory lesions: −45.7%
  Progress of the lesions (median percentages): Number of non-inflammatory lesions: −33.3%
  Progress of the lesions (median percentages): Total number of lesions: −35.4%
Acne lesions; listed as adapalene
  Degree of success: 16%
[2]
  percentage of patients who experienced treatment-related AEs: 15.3%

## O=C(OOC(=O)c1ccccc1)c1ccccc1 [BPO, benzoyl peroxide]
TPA-induced ear edema; [4]
  Ear edema Mean: 22.40
  Inhibition vs TPA (%): 16% and 16.4%
TPA-induced ear edema; [5]
  Ear edema Mean: 20.40
  Inhibition vs TPA (%): 24% and 23.9%
TPA-induced ear edema; [6]
  Ear edema Mean: 16.20
  Inhibition vs TPA (%): 40% and 39.6%
Acne vulgaris lesions
  net effect (active minus vehicle), total lesions: 2.4%
  success rate: 23.1%
Acne lesions
  reduction in lesions: 36%
  Degree of success: 15% and 15.4%
  Progress of the lesions (as median absolute numbers): Number of inflammatory lesions: −13.0
  Progress of the lesions (as median absolute numbers): Number of non-inflammatory lesions: −16.0
  Progress of the lesions (as median absolute numbers): Total number of lesions: −27
  Progress of the lesions (median percentages): Number of inflammatory lesions: −43.6%
  Progress of the lesions (median percentages): Number of non-inflammatory lesions: −36.4%
  Progress of the lesions (median percentages): Total number of lesions: −35.6%
[2]
  percentage of patients who experienced treatment-related AEs: 8.5%
